Reference: patent US7790668B2, “2-methoxy-2,6-dimethyloctanal and its use as a fragrance ingredient” (Givaudan SA, priority 2005, dated 2010)

Assay: Odour threshold concentration by using an olfactometer
Details: for Odour threshold concentration, geometric mean: olfactometer, forced-choice triangle presentation, group of 12 panelists, both compounds measured on the same day under identical conditions; for odour threshold concentration, times lower compared to 6-methoxy-2,6-dimethylheptanal (Methoxymelonal): ratio of the geometric mean thresholds vs the prior-art compound
Source text: The odour threshold concentration is defined as the lowest concentration of the vapour of an odorous material in the air which can be detected by smell. The concentration can be measured by standard methods known in the art by using either olfactometry means or sniff-bottles allowing panelists to smell the presented headspace.
The olfactometer functions on the principle of a linear dilution of an odorant in a carrier gas. The quantity of odorant displaced depends on its vapour pressure and the carrier gas flow. A constant flow of nitrogen, regulated by a flow regulator, carries the odorant from a sample container to a mixing chamber. There, the carrier gas-odour mixture is diluted with odourless air. From the mixing chamber one part of the diluted odorous air is allowed to flow via a fused silica capillary to the sniffing funnel. The flow rate through the capillary, which determines the dosage of odorous air from the mixing chamber into the sniffing funnel, depends on the opening of the valve which can be regulated via PC from 1 to 256 ml in binary steps. The final dilution of the odorous air sample occurs in the glass funnel by flushing them permanently with odourless air at a flow rate of 8 L/min. Forced-choice triangle presentation is achieved by a special automated channel setting device where only in one position of a switch the odorant delivering capillary enters in the sniffing funnel, whereas in the two other positions the capillary is positioned outside the funnel and where the effluent is sucked away. After each trial the channel setting is changed automatically and in a random order. The concentration is calculated from the odorants vapour pressure and from the dilution ratios that were applied in the olfactometer, assuming that vapour saturation is achieved in the sample generator. As a control the concentration was by sampling a known volume from the capillary effluent into a headspace filter and then determined. The panelist starts sniffing at the olfactometer at a concentration level at which he perceives the odorant at medium intensity. After three correct answers in three consecutive trials (or four correct ones of five trials) at the same level, stimulus concentration is decreased by a factor of two to the next lower level, and so on, until the panelist has reached his threshold level.
Under identical conditions the odour threshold concentration for 6-methoxy-2,6-dimethyloctanal and 6-methoxy-2,6-dimethylheptanal was measured and compared by a group of 12 panelists. The sequence with which of the two compounds the panelist started smelling was alternated. Both compounds were measured on the same day and the following data were obtained: […]

SMILES | Odour threshold concentration, geometric mean [ng/L] | odour threshold concentration, times lower compared to 6-methoxy-2,6-dimethylheptanal (Methoxymelonal) | odour threshold concentration, times lower compared to 6-methoxy-2,6-dimethylheptanal (Methoxymelonal) (listed as compound of the present invention) [times]
COC(C)(C)CCCC(C)C=O (stereo not shown) [6-methoxy-2,6-dimethylheptanal, reference compound] | 1.92 |  | 
CCC(C)(CCCC(C)C=O)OC (stereo not shown) [6-methoxy-2,6-dimethyloctanal] | 0.78 | about 2.5 times | 2.46
